Assay results taken from patent US20220324835A1 (Nurix Therapeutics, Inc., priority 2018, published 2022).
Like-named read-outs stand apart in the source and are kept apart here.

Tests used:
T-cell [1] = test: IL-2 secretion from T-cells co-stimulated with anti-CD3 and anti-CD28 antibody (Biological Example 2); type: cell-based, human; conditions: Homo sapiens, T-cell, read-out: IL-2 secretion Anti-CD3/Anti-CD28 stimulation; for fold induction at 0.3 µM: 0.3 μM Cbl-b inhibitor; for fold induction at 1 µM: 1 μM Cbl-b inhibitor; for fold induction at 4 µM: 4 μM Cbl-b inhibitor
How it was run: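 Values are fold-change over baseline: readings (IL-2 release, CD25 staining) from inhibitor-treated T-cells divided against untreated cells […]. No detailed procedure stated.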

T-cell [2] = test: CD25 cell surface staining on T-cells stimulated with anti-CD3 antibody alone (Biological Example 2); type: cell-based, human; conditions: T-cell, read-out: CD25 staining Anti-CD3 stimulation; for fold induction at 1 µM: 1 μM Cbl-b inhibitor; for fold induction at 8 µM: 8 μM Cbl-b inhibitor
Cbl-b = Cbl-b (Homo sapiens, UniProt Q13191); test: Cbl-b activity assay (Cbl-b inhibition assay), TR-FRET of Cbl-b interaction with UbcH5B-Ub; type: biochemical; conditions: assay buffer with 100 mM NaCl, 60 nM Src kinase; read-out: Cbl-b activity IC50
How it was run: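 Compound-treated Cbl-b was incubated 1.5 h with Src kinase (60 nM final; 30 nM for asterisked values, which also used 50 mM instead of 100 mM NaCl), 1 mM ATP and 5 mM MgCl2. Binding to fluorescent Ub-loaded UbcH5B (C85K mutant) was then read by TR-FRET after 1 h more.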

Cbl-b (residues 36-427) = Cbl-b (residues 36-427) (Homo sapiens, UniProt Q13191); test: Cbl-b binding assay (SPR, Biacore T200); conditions: 20° C., 1:1 binding model
How it was run: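 NeutrAvidin capture chip, 20° C; 50 s injections at 50 μl/min, 90-180 s dissociation; 0.3 M NaCl regeneration. Asterisked column: 50 mM NaCl buffer and 30 nM Src kinase in place of 100 mM NaCl and 60 nM Src kinase. 1:1 fit.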

[3] = fold change over baseline, primary human total T-cells
[4] = fold change over baseline (anti-CD3/anti-CD28 stimulated T-cells without inhibitor)

Cbl-b, sequence (Q13191 36-427): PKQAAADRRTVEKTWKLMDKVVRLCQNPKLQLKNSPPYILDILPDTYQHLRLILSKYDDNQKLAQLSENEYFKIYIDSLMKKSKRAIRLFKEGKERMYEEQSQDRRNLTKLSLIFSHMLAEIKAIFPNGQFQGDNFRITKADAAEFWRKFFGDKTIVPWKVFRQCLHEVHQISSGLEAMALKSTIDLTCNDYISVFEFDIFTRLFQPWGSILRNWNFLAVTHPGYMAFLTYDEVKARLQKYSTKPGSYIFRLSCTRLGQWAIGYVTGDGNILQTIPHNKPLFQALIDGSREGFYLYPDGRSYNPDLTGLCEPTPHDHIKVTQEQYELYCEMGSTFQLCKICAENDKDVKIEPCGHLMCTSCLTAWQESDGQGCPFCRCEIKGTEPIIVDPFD
Cbl-b (residues 36-427), sequence (Q13191 36-427): as above

Row | Compound | fold induction at 0.3 µM (T-cell [1]; [3]) | fold induction at 1 µM (T-cell [1]; [3]) | fold induction at 4 µM (T-cell [1]; [3]) | fold induction at 1 µM (T-cell [2]; [3]) | fold induction at 8 µM (T-cell [2]; [3]) | IC50 (Cbl-b) [nM] | Kd (Cbl-b (residues 36-427)) [nM] | fold induction at 0.3 µM (T-cell [1]; [4]) | fold induction at 1 µM (T-cell [1]; [4]) | fold induction at 1 µM (T-cell [2]; Homo sapiens, fold change over baseline (anti-CD3/anti-CD28 stimulated T-cells without inhibitor))
1 | C[C@H](Cc1nncn1C)c1cccc(N2Cc3c(ccnc3C3CC3)C2=O)c1 [Compound 257, 4-cyclopropyl-2-[3-[(1R)-1-methyl-2-(4-methyl-1,2,4-triazol-3-yl)ethyl]phenyl]-3H-pyrrolo[3,4-c]pyridin-1-one] | 1.01 to 2.5 | 1.01 to 2.5 | 1.01 to 2.5 | 0.601 to 0.8 | > 1 | 100 to 300 | 301 to 1000 |  |  | 
2 | Cn1cnnc1C[C@](C)(F)c1cccc(N2Cc3c(cccc3C(F)(F)F)C2=O)c1 [Compound 298b, (S)-2-(3-(2-fluoro-1-(4-methyl-4H-1,2,4-triazol-3-yl)propan-2-yl)phenyl)-4-(trifluoromethyl)isoindolin-1-one] | 1.01 to 2.5 | 1.01 to 2.5 | 1.01 to 2.5 | 0.601 to 0.8 | 0.801 to 1 | 100 to 300 | 100 to 300 |  |  | 
3 | C[C@H](Sc1nncn1C)c1cccc(NC(=O)c2cc3c(Cl)cccc3[nH]2)c1 [Compound 78, 4-chloro-A-[3-[(LS)-1-[(4-methyl-1,2,4-triazol-3-yl)sulfanyl]ethyl]phenyl]-1H-indole-2-carboxamide] | 1.01 to 2.5 | 1.01 to 2.5 | 2.51 to 5 | 0.601 to 0.8 | 0.801 to 1 | 100 to 300 | 100 to 300 |  |  | 
4 | C[C@H](Cc1nncn1C)c1cccc(NC(=O)c2cc(C3(O)COC3)cc(C(F)(F)F)n2)c1 [Compound 190, (R)-4-(3-hydroxyoxetan-3-yl)-N-(3-(1-(4-methyl-4H-1,2,4-triazol-3-yl)propan-2-yl)phenyl)-6-(trifluoromethyl)picolinamide] | < 1 | 1.01 to 2.5 | 5 to 7.5 | 0.601 to 0.8 | > 1 | 100 to 300 | 100 to 300 |  |  | 
5 | C[C@H](Cc1nncn1C)c1cccc(NC(=O)c2cc(S(N)(=O)=O)cc(C(F)(F)F)n2)c1 [Compound 200, (R)-N-(3-(1-(4-methyl-4H-1,2,4-triazol-3-yl)propan-2-yl)phenyl)-4-sulfamoyl-6-(trifluoromethyl)picolinamide] | < 1 | < 1 | 1.01 to 2.5 | 0.801 to 1 | > 1 | 100 to 300 | 301 to 1000 |  |  | 
6 | Cc1cccc2nc(C(=O)Nc3cccc([C@H](C)Sc4nncn4C)c3)ccc12 [Compound 48, 5-Methyl-N-[3-[(1S)-1-[(4-methyl-4H-1,2,4-triazol-3-yl)sulfanyl]ethyl]phenyl]quinoline-2-carboxamide] | 2.51 to 5 | 5 to 7.5 | > 7.5 | 0.801 to 1 | 0.801 to 1 | 301 to 1000 | 1000 to 3000 |  |  | 
7 | C[C@H](Cc1nncn1C)c1cc(-c2cn[nH]c2)nc(N2Cc3c(cccc3C(F)(F)F)C2=O)c1 [Example 684, (R)-2-(4-(1-(4-methyl-4H-1,2,4-triazol-3-yl)propan-2-yl)-6-(1H-pyrazol-4-yl)pyridin-2-yl)-4-(trifluoromethyl)isoindolin-1-one] |  |  |  |  |  | 301 to 1000 | 1000 to 3000 | < 1 | < 1 | < 0.6
8 | C[C@H](Cc1nncn1C)c1cccc(NC(=O)c2cc(S(C)(=O)=O)cc(C3CC3)n2)c1 [Compound 198, 6-cyclopropyl-N-[3-[(1R)-1-methyl-2-(4-methyl-1,2,4-triazol-3-yl)ethyl]phenyl]-4-methylsulfonyl-pyridine-2-carboxamide] | 1.01 to 2.5 | 1.01 to 2.5 | 1.01 to 2.5 | 0.801 to 1 | > 1 | 100 to 300 | 100 to 300 |  |  | 
